Among the data in patent US8461328B2, “Tricyclic heterocyclic compounds, compositions and methods of use thereof” (Genentech, Inc., priority 2010, dated 2013) are Ki values, retold here.

What all share (format): biochemical
One assay addresses T1, JAK1 (Homo sapiens, UniProt P23458).
T1 construct: made in house; host or cells: SF9 insect cells (baculovirus)
The experiment in a line: JAK1 inhibition (Table 4). To be noted: read-out: JAK1 Ki.

The target in the next assay is T2, JAK2 (Homo sapiens, UniProt O60674).
T2 construct: made in house; host or cells: SF9 insect cells (baculovirus)
T2 sequence (O60674 812-1132): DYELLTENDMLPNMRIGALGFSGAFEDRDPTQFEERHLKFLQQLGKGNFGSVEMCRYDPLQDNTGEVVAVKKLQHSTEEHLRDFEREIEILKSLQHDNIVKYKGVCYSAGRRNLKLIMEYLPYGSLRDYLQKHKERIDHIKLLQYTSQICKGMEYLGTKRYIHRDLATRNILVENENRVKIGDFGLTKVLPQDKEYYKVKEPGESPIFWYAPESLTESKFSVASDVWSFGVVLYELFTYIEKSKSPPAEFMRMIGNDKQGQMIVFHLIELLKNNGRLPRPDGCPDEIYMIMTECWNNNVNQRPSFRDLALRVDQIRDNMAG
The experiment in a line: JAK2 inhibition (Table 4). To be noted: read-out: JAK2 Ki.

Another assay addresses T3, JAK3 (Homo sapiens, UniProt P52333).
T3 construct: made in house; host or cells: SF9 insect cells (baculovirus)
The experiment in a line: JAK3 inhibition (Table 4). To be noted: read-out: JAK3 Ki.

The next assay concerns the target T4, TYK2 (Homo sapiens, UniProt P29597).
T4 construct: made in house; host or cells: SF9 insect cells (baculovirus)
T4 sequence (P29597 873-1187): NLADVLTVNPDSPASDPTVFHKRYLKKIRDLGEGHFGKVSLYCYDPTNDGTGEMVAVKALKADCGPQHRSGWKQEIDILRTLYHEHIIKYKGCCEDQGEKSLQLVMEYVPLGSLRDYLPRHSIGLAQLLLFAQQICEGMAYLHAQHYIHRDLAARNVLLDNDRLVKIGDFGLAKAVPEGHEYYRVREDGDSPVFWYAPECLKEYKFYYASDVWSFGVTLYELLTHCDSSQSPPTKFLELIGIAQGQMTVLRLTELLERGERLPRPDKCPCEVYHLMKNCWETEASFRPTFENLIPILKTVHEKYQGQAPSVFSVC
The experiment in a line: TYK2 inhibition (Table 4).

The term Ki denotes a dissociation constant, usually derived from enzyme kinetics or from competition with a known ligand.

T3 sequence (P52333 783-1124): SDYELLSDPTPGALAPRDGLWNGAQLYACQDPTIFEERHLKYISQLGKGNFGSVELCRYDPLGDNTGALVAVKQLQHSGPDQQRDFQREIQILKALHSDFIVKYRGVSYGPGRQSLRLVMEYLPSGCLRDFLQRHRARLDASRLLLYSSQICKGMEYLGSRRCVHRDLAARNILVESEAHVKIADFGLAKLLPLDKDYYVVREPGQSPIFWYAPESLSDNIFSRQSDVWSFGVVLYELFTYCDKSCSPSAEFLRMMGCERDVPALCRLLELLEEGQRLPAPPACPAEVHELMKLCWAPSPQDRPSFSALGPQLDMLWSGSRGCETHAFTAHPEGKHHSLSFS
T1 sequence (P23458 852-1154): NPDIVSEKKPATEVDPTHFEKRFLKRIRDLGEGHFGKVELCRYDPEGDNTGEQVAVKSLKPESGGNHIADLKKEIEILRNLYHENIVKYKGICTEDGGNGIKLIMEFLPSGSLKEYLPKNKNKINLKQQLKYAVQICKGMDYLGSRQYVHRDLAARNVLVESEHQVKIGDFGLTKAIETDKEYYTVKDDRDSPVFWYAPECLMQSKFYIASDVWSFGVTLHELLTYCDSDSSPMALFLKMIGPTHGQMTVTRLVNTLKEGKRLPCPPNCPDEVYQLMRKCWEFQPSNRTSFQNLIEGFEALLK

For `O=C1CCC2(CCC(n3cnc4cnc5[nH]ccc5c43)CC2)N1` (stereo not drawn) [Example 152, 8-(6H-1,2,3,5,6-Tetraaza-as-indacen-1-yl)-1-aza-spiro[4.5]decan-2-one], the Ki at JAK1 was 0.00314 µM; at JAK2, 0.00473 µM; at JAK3 it was 0.0397 µM; on TYK2, 0.0138 µM.
The corresponding values for `CN1CCC[C@H]1C(=O)N1CCC(n2nnc3cnc4[nH]ccc4c32)CC1` [Example 284, ((S)-1-Methyl-pyrrolidin-2-yl)-[4-(6H-1,2,3,5,6-pentaaza-as-indacen-1-yl)-piperidin-1-yl]-methanone] are 0.0925 µM, 0.604 µM, 2.63 µM and 3.43 µM.
The corresponding values for `N#CCCN1CCC(n2c(CC(=O)N3CCOCC3)nc3cnc4[nH]ccc4c32)CC1` [Example 160, 3-{4-[2-(2-Morpholin-4-yl-2-oxo-ethyl)-6H-1,2,3,5,6-tetraaza-as-indacen-1-yl]-piperidin-1-yl}-propionitrile] are 0.00843 µM, 0.0706 µM, 0.0107 µM and 0.1 µM.
The corresponding values for `COCCN1CC[C@@H](n2c([C@@H](C)O)nc3cnc4[nH]ccc4c32)C(F)(F)C1` [Example 1014, (R)-1-{1-[(R)-3,3-Difluoro-1-(2-methoxy-ethyl)-piperidin-4-yl]-1,6-dihydro-1,3,5,6-tetraaza-as-indacen-2-yl}-ethanol] are 0.00253 µM, 0.0186 µM, 0.00465 µM and 0.0455 µM.
For the compound `O=C(Cc1nc2cnc3[nH]ccc3c2n1C1CCCOC1)NC1CCC(F)(F)CC1` (racemic) [Example 972, N-(4,4-Difluoro-cyclohexyl)-2-[1-(tetrahydro-pyran-3-yl)-1,6-dihydro-1,3,5,6-tetraaza-as-indacen-2-yl]-acetamide], the Ki on JAK1 turned out to be 0.0276 µM; on JAK2, 0.113 µM; on JAK3, 0.0891 µM; at TYK2 it was 0.194 µM.
For the compound `Cc1nc2cnc3[nH]ccc3c2n1C1CCC(NC(=O)N(C)CC(F)F)CC1` (stereo not drawn) [Example 750, 1-(2,2-difluoro-ethyl)-1-methyl-3-[4-(2-methyl-6H-1,3,5,6-tetraaza-as-indacen-1-yl)-cyclohexyl]-urea], the Ki at JAK1 stood at 0.00474 µM; on JAK2 it was 0.0221 µM; at JAK3, 0.0176 µM; on TYK2, 0.13 µM.
The corresponding values for `OCc1nc2cnc3[nH]ccc3c2n1C1CCN(Cc2ccccc2)CC1` [Example 22, [1-(1-Benzyl-piperidin-4-yl)-1,6-dihydro-1,2,3,5,6-tetraaza-as-indacen-2-yl]methanol] are 0.00173 µM, 0.00644 µM, 0.0108 µM and 0.0699 µM.
The corresponding values for `COC(=O)N(C)[C@H]1CC[C@H](n2c(CO)nc3cnc4[nH]ccc4c32)CC1` [Example 606, Trans[4-(2-hydroxymethyl-6H-1,2,3,5,6-tetraaza-as-indacen-1-yl)-cyclohexyl]-methyl-carbamic acid methyl ester] are 0.0288 µM, 0.0652 µM, 0.455 µM and 0.112 µM.
The corresponding values for `COC1CCCC(n2c(C)nc3cnc4[nH]ccc4c32)C1` (stereo not drawn) [Example 889, 1-(3-Methoxy-cyclohexyl)-2-methyl-1,6-dihydro-1,3,5,6-tetraaza-as-indacene] are 0.0362 µM, 0.337 µM, 0.335 µM and 0.0965 µM.
In the case of `CC(=O)N1CCN(C(=O)Cc2nc3cnc4[nH]ccc4c3n2C2CCCOC2)CC1` (racemic) [Example 977, 1-(4-Acetyl-piperazin-1-yl)-2-[1-(tetrahydro-pyran-3-yl)-1,6-dihydro-1,3,5,6-tetraaza-as-indacen-2-yl]-ethanone], the Ki at JAK1 came to 0.0282 µM; on JAK2, 0.363 µM; at JAK3, 0.195 µM; at TYK2, 0.21 µM.
Take `FC(F)(F)c1nc(CN2CCC(n3cnc4cnc5[nH]ccc5c43)CC2)cs1` [Example 295, 1-[1-(2-Trifluoromethyl-thiazol-4-ylmethyl)-piperidin-4-yl]-1,6-dihydro-1,3,5,6-tetraaza-as-indacene]: the Ki on JAK1 worked out at 0.00105 µM; on JAK2, 0.00204 µM; on JAK3, 0.00986 µM; at TYK2, 0.0284 µM.
As to `O=C([C@H]1CC[C@H](n2nnc3cnc4[nH]ccc4c32)CC1)N1CCOCC1` [Example 246, Morpholin-4-yl-[4-(6H-1,2,3,5,6-pentaaza-as-indacen-1-yl)-cyclohexyl]-methanone], the Ki at JAK1 turned out to be 0.164 µM; on JAK2, 0.183 µM; on JAK3 it was 0.652 µM; on TYK2, 1.62 µM.
The corresponding values for `O=C(Cc1nc2cnc3[nH]ccc3c2n1C1CCCOC1)N1CCC(F)(F)CC1` (racemic) [Example 978, 1-(4,4-Difluoro-piperidin-1-yl)-2-[1-(tetrahydro-pyran-3-yl)-1,6-dihydro-1,3,5,6-tetraaza-as-indacen-2-yl]-ethanone] are 0.0174 µM, 0.305 µM, 0.124 µM and 0.157 µM.
Turning to `CCn1cc(CN2CCC(n3c([C@@H](C)O)nc4cnc5[nH]ccc5c43)CC2)cn1` [Example 822, (R)-1-{1-[1-(1-Ethyl-1H-pyrazol-4-ylmethyl)-piperidin-4-yl]-1,6-dihydro-1,3,5,6-tetraaza-as-indacen-2-yl}-ethanol], the inhibition constant (Ki) at JAK1 was determined as 0.0181 µM; at JAK2, 0.894 µM; on JAK3, 0.311 µM; on TYK2 it was 2.81 µM.
The corresponding values for `N#CCCN1CCC(n2c(CC(=O)N3CCCC3)nc3cnc4[nH]ccc4c32)CC1` [Example 270, 3-{4-[2-(2-Oxo-2-pyrrolidin-1-yl-ethyl)-6H-1,3,5,6-tetraaza-as-indacen-1-yl]-piperidin-1-yl}-propionitrile] are 0.0361 µM, 0.121 µM, 0.0151 µM and 0.352 µM.
In the case of `COCCN1CCC[C@@H](n2cnc3cnc4[nH]ccc4c32)C1` [Example 61, 1-[(R)-1-(2-Methoxy-ethyl)-piperidin-3-yl]-1,6-dihydro-1,3,5,6-tetraaza-as-indacene], the Ki at JAK1 stood at 0.153 µM; at JAK2 it was 0.253 µM; on JAK3 it was 0.22 µM; on TYK2 it was 1.05 µM.
Turning to `CC(C)(C)OC(=O)NC1CCCC(n2cnc3cnc4[nH]ccc4c32)C1` (single isomer, unassigned) [Example 474, [3-(6H-1,3,5,6-Tetraaza-as-indacen-1-yl)-cyclohexyl]-carbamic acid tert-butyl ester], the Ki on JAK1 came out at 0.00207 µM; on JAK2, 0.0044 µM; on JAK3 it was 0.0196 µM; at TYK2 it was 0.0471 µM.
The corresponding values for `CC(O)c1nc2cnc3[nH]ccc3c2n1C1CCCN(C(=O)C2CC2C)C1` (stereo not drawn) [Example 796, {3-[2-(1-Hydroxy-ethyl)-6H-1,3,5,6-tetraaza-as-indacen-1-yl]-piperidin-1-yl}-(2-methyl-cyclopropyl)-methanone] are 0.055 µM, 0.746 µM, 0.884 µM and 0.617 µM.
In the case of `FC1CNCCC1n1cnc2cnc3[nH]ccc3c21` (racemic) [Example 520, 1-(3-Fluoro-piperidin-4-yl)-1,6-dihydro-1,3,5,6-tetraaza-as-indacene], the Ki is 0.0382 µM at JAK1, 0.128 µM on JAK2, 0.412 µM at JAK3 and 0.261 µM on TYK2.
For `Fc1cccc(CN2CCC[C@@H](n3cnc4cnc5[nH]ccc5c43)C2)c1` [Example 47, 1-[(R)-1-(3-Fluoro-benzyl)-piperidin-3-yl]-1,6-dihydro-1,3,5,6-tetraaza-as-indacene], the Ki is 0.0131 µM at JAK1, 0.0289 µM at JAK2, 0.0522 µM at JAK3 and 0.101 µM at TYK2.
The corresponding values for `COC(=O)CC(c1cccnc1)N1CCC(n2cnc3cnc4[nH]ccc4c32)CC1` (racemic) [Example 126, 3-pyridin-3-yl-3-[4-(6H-1,2,3,5,6-tetraaza-as-indacen-1-yl)-piperidin-1-yl]-propionic acid methyl ester] are 0.0155 µM, 0.0152 µM, 0.418 µM and 0.193 µM.
The corresponding values for `C[C@@H](O)c1nc2cnc3[nH]ccc3c2n1N1CCOCC1` [Example 891, (R)-1-(1-Morpholin-4-yl-1,6-dihydro-1,3,5,6-tetraaza-as-indacen-2-yl)-ethanol] are 0.065 µM, 0.543 µM, 0.24 µM and 0.165 µM.
`CNc1nc2cnc3[nH]ccc3c2n1C1CCN(S(C)(=O)=O)CC1` [Example 774, [1-(1-Methanesulfonyl-piperidin-4-yl) 1,6-dihydro-1,3,5,6-tetraaza-as-indacen-1-yl]-methyl-amine]: the Ki on JAK1 worked out at 0.0407 µM; at JAK2 it was 0.0827 µM; at JAK3, 0.242 µM; on TYK2, 0.141 µM.
For the compound `CCN1CC[C@@H](n2c(CCNS(=O)(=O)CC)nc3cnc4[nH]ccc4c32)[C@@H](F)C1` [Example 681, Ethanesulfonic acid {2-[1-((3S,4R)-1-ethyl-3-fluoro-piperidin-4-yl)-1,6-dihydro-1,2,3,5,6-tetraaza-as-indacen-2-yl]-ethyl}-amide], the Ki was 0.00421 µM on JAK1, 0.0326 µM at JAK2, 0.133 µM at JAK3 and 0.29 µM at TYK2.
